Experimental data reported in publication PMC7496286, “The Selectivity of Fosfosal for STAT5b over STAT5a is Mediated by Arg566 in the Linker Domain” (Chembiochem, 2020).
Where a chain is given by its changes, count along the chain named.

Columns and labels:
STAT5b Arg566Glu = molecular target: T1, STAT5b Arg566Glu (Homo sapiens, UniProt P51692, R566E); experiment: FP-based competitive binding assay, STAT5b Arg566Glu
T1 construct: His; made in house
T1 sequence (P51692 1-787 R566E): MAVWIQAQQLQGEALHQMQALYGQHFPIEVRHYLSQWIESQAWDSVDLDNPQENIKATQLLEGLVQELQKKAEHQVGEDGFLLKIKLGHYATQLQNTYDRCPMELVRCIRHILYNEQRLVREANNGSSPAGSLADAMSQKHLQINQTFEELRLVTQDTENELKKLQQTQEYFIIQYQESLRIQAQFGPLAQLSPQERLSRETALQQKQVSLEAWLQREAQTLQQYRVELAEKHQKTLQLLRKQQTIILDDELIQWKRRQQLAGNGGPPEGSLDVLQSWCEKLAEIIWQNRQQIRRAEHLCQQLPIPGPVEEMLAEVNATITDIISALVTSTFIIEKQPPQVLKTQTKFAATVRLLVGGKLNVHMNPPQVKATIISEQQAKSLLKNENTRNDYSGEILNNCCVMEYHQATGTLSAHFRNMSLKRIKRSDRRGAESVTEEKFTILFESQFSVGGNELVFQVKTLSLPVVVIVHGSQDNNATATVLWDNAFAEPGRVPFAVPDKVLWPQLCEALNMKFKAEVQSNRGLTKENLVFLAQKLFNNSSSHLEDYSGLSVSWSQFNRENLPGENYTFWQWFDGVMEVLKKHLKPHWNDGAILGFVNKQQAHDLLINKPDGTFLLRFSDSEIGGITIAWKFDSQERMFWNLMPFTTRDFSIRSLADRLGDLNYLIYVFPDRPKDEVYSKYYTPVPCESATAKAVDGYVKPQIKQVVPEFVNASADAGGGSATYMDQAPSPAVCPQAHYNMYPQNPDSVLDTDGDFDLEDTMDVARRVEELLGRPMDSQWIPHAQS
Description: (§1) Fluorescence polarization assays
(§2) The ability of test compounds to displace 5-carboxyfluorescein-GY(PO3H2)LVLDKW (final concentration: 10 nM) from the SH2 domain of STAT5a/b proteins was analyzed. Proteins […]
(§3) was applied in dilution series comprising the following concentrations: 0.024 – 200 µM […]
(§4) and 0.146 – 600 µM (STAT5b Arg566Glu), respectively. The assays were performed in buffer containing 10 mM Tris, 50 mM NaCl, 1 mM DTT, 1 mM EDTA and 0.1% (v/v) NP-40. Fosfosal was dissolved in DMSO. STAT5a/b proteins and fosfosal were incubated at room temperature for 1 h before adding peptide. Samples were transferred to 384-well microtiter plates and fluorescence polarization was read after a further 1 h incubation time. All measurements were performed in triplicate (n=3), except for STAT5b (n=6) and STAT5a Trp566Arg (n=4). Percent binding was calculated based on a logarithmic curve fit using OriginPro 8G software. IC50 values were converted to Ki values using the published equation.[4] […]

STAT5b Arg566Ala = molecular target: T2, STAT5b Arg566Ala (Homo sapiens, UniProt P51692, R566A); experiment: FP-based competitive binding assay, STAT5b Arg566Ala
T2 construct: His; made in house
T2 sequence (P51692 1-787 R566A): T1 sequence (P51692 1-787 R566E) with E566A
Description: as §1, §2, §3, §4
(§5) [4] Z. Nikolovska-Coleska, R. Wang, X. Fang, H. Pan, Y. Tomita, P. Li, P. P. Roller, K.
(§6) Krajewski, N. G. Saito, J. A. Stuckey, S. Wang, Anal. Biochem. 2004, 332, 261-273.

[1] = molecular target: T3, STAT5b-7M (Arg566Trp/Gln636Pro/Met639Asn/Phe640Leu/Met644Lys/Asn664Ser/Tyr679Phe) (Homo sapiens, UniProt P51692, F640L/M639N/M644K/N664S/Q636P/R566W/Y679F); experiment: FP-based competitive binding assay, STAT5b-7M
T3 construct: His; made in house
T3 sequence (P51692 1-787 R566W/Q636P/M639N/F640L/M644K/N664S/Y679F): T1 sequence (P51692 1-787 R566E) with E566W, Q636P, M639N, F640L, M644K, N664S, Y679F
Description: as §1, §2, §3, §4, §5, §6

Structure (SMILES)	Kd (STAT5b Arg566Glu)	Kd (STAT5b Arg566Ala)	Kd [1]	% inhibition at 600 μM (STAT5b Arg566Glu; STAT5b Arg566Glu, up to 600 μM)	inhibition at 600 µM (STAT5b Arg566Ala; STAT5b Arg566Ala, 600 μM)	IC50 ([1]; STAT5b-7M)	Ki ([1]; STAT5b-7M, Ki calculated from IC50)
CC(C)C[C@H](NC(=O)[C@H](Cc1ccc(OP(=O)(O)O)cc1)NC(=O)CNC(=O)c1ccc2c(c1)C(=O)OC21c2ccc(O)cc2Oc2cc(O)ccc21)C(=O)N[C@H](C(=O)N[C@@H](CC(C)C)C(=O)N[C@@H](CC(=O)O)C(=O)N[C@@H](CCCCN)C(=O)N[C@@H](Cc1c[nH]c2ccccc12)C(=O)O)C(C)C [5-carboxyfluorescein-GY(PO3H2)LVLDKW]	2000 nM	567 nM	246 nM				
O=C(O)c1ccccc1OP(=O)(O)O [fosfosal, O‐phosphorylated salicylic acid]				no inhibition	22 ± 3%	379000 ± 7000 nM	189000 ± 3000 nM
